For test [1], the system named is DU-145. As to the kind of experiment: Cytotoxicity against human DU-145 cells assessed as cell growth inhibition for 72 hrs by MTT assay. Format: functional. As to conditions: Homo sapiens, DU-145, 72 h. A general note: Tetrazolium assays rely on reduction of a dye to a coloured formazan, in cell work by metabolically active cells.
Test [2] concerns DU-145. As to the kind of experiment: Cytotoxicity against human DU-145 cells assessed as cell growth inhibition at 10 uM for 72 hrs by MTT assay. In kind it is functional.
A further test has as its system A549. Put plainly: Cytotoxicity against human A549 cells assessed as cell growth inhibition for 72 hrs by MTT assay. As to conditions: Homo sapiens, A549, 72 h. Format: functional.
Test [3] deals with T1, Tyrosyl-DNA phosphodiesterase 2 (Homo sapiens, UniProt O95551).
T1 sequence (O95551 whole entry): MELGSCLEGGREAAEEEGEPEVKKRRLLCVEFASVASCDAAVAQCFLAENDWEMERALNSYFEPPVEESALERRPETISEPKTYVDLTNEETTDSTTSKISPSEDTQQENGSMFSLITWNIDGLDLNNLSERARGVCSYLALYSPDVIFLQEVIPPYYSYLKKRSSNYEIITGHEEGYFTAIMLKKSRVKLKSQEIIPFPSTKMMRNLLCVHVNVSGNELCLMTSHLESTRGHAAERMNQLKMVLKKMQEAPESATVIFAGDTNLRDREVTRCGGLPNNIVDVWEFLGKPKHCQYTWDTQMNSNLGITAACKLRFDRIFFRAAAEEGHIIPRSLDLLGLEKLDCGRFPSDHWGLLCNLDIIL
Put plainly: Inhibition of N-terminal His-tagged human TDP2 expressed in Escherichia coli BL21 using 4-nitrophenyl phenylphosphonate as substrate incubated for 60 mins by EDTA based chromogenic assay.

The nature of test [4]: Synergistic cytotoxicity against chicken DT40 cells expressing human TDP2 assessed as combination index incubated for 72 hrs in presence of etoposide by MTT-based Chou-Talalay method. Format: functional, Gallus gallus.
In test [5] the test system is DU-145. Put plainly: Cytotoxicity against human DU-145 cells assessed as cell growth inhibition for 72 hrs in presence of etoposide by MTT assay. In kind it is functional.
In test [6] the test system is DU-145. As to the kind of experiment: Synergistic cytotoxicity against human DU145 cells assessed as inhibition of colony formation at 5 uM incubated for 14 days in presence of doxorubicin by crystal violet staining based analysis. Format: functional, cell-based. As to conditions: time 14.0 day.
Test [7] relates to DU-145. Put plainly: Synergistic cytotoxicity against human DU-145 cells assessed as combination index incubated for 72 hrs in presence of doxorubicin by MTT-based Chou-Talalay method. Format: functional.
Test [8] can be described thus: Synergistic cytotoxicity against chicken DT40 cells assessed as combination index incubated for 72 hrs in presence of etoposide by MTT-based Chou-Talalay method. Format: functional, Gallus gallus.
The subject of test [9] is DU-145. Put plainly: Synergistic cytotoxicity against human DU145 cells assessed as inhibition of colony formation at 5 uM incubated for 14 days in presence of etoposide by crystal violet staining based analysis. In kind it is functional, cell-based. As to conditions: time 14.0 day.
Test [10] concerns DU-145. As to the kind of experiment: Synergistic cytotoxicity against human DU-145 cells assessed as combination index incubated for 72 hrs in presence of etoposide by MTT-based Chou-Talalay method. In kind it is functional.
A short description of test [11]: Induction of reactive oxygen species production assessed as increase in hydrogen peroxide production […] in presence of DTT by redox cycling assay. Format: functional.

Activity calls are given as the source filed them. No cut-off for these calls is given here.

Broadly, the GI50 is the concentration that inhibits growth by half. As a reminder, the inhibition is the drop in the measured response relative to a control, in per cent. As a reminder, the IC50 is the concentration that inhibits the measured activity by half. The low end stands for greater potency in that assay, the high end for weaker potency in that assay.

On to `COc1cc([C@@H]2c3cc4c(cc3[C@@H](O[C@@H]3O[C@@H]5CO[C@@H](C)O[C@H]5[C@H](O)[C@H]3O)[C@H]3COC(=O)[C@H]23)OCO4)cc(OC)c1O` [ETOPOSIDE], for which the GI50 with DU-145 [1] was determined as 13 µM; in the test on A549, 10 µM. Also, in the test on DU-145 [2], the inhibition at 10 µM is 47%.
As to `CC(C)[C@@H]1C2=C(Oc3c1c(O)cc1c3[C@H](C(C)C)C3=C(O1)C(C)(C)C(=O)C(C)(C)C3=O)C(C)(C)C(=O)C(C)(C)C2=O`, the GI50 is 26 µM in the test with DU-145 [1] and 56 µM in the test with A549. For the same molecule, the midpoint of inhibition in test [3], the IC50, lay at 36 µM.
In the case of `CC(C)[C@@H]1C2=C(Oc3c1c(OCC(=O)N(C)C)cc1c3[C@@H](C(C)C)C3=C(O1)C(C)(C)C(=O)C(C)(C)C3=O)C(C)(C)C(=O)C(C)(C)C2=O`, the CI is 0.48 in test [4], 0.81 in the test on DU-145 [7], 0.95 in test [8] and 0.26 in the test with DU-145 [10]. Also, the values for the GI50 with DU-145 [1] and with A549 were 26 µM and 62 µM, respectively. Moreover, the “inhibition (INH)” value in the test with DU-145 [5] is on record as 77%. Also, the outcome with DU-145 [6] and with DU-145 [9] was Active. Moreover, half-maximal inhibition in test [3] (IC50) required 5.4 µM.
`CC1(C)CCC2=C(O1)c1ccccc1C(=O)C2=O`: in test [11], the outcome was Active.
On to `CC(C)[C@@H]1C2=C(Oc3c1c(OCc1ccccc1)cc1c3[C@@H](C(C)C)C3=C(O1)C(C)(C)C(=O)C(C)(C)C3=O)C(C)(C)C(=O)C(C)(C)C2=O`, for which the GI50 was 19 µM in the test on DU-145 [1] and 36 µM in the test with A549. The molecule further returned an IC50 in test [3] of 54 µM.
